Legend:
MDA-MB-231 cells [1] = assay: Soft-agar colony forming assay, MDA-MB-231; assay type: cell-based; settings: MDA-MB-231, soft agar, 20 μM
Description: It was hypothesized that the specific binding of MC-1-F2 can lead to its specific cellular activity against cancer cells with high FOXC2 expression. This hypothesis was tested by evaluating MC-1-F2's cellular activity on cell lines with different FOXC2 expression levels: MCF-7, BT549, and MDA-MB-231. […] However, further studies are still underway. The specificity in cellular activity of MC-1-F2 was further evaluated in the form of a soft-agar colony forming assay to determine if MC-1-F2 was able to inhibit in vitro tumorigenicity of cancer cells in a FOXC2 expression-dependent manner. […] Further testing is underway in various breast cancer cell lines with different FOXC2 expression levels.
Soft-agar colony-formation assay was performed in 6-well plates. 5×10^3 cells were re-suspended into 1.5 mL 0.3% agarose-DMEM mixture, and seeded onto the 0.5% agarose-DMEM base layer. FBS-supplemented DMEM medium (0.2 mL) containing the compound of determined concentrations was added on the top and changed every 3 days. After 10 days incubation in 37° C. incubator with 5% CO2, 0.5 mL of 0.005% crystal violet solution was added to the top of the agarose gel and incubated overnight. The total number of colonies per well that were >100 microns in size when viewed under a simple microscope were counted. Light microscopy images were captured under 20× magnification.

MDA-MB-231 cells [2] = assay: Western blot of FOXC2 target/non-target genes, EMT, CSC and apoptosis markers in MDA-MB-231; assay type: cell-based; settings: MDA-MB-231, 20 μM
Description: MC-1-F2's effect on FOXC2-mediated transcription was examined by measuring PDGFR-β expression levels, a downstream effector of FOXC2 (Hollier et al., 2013). […] (FIGS. 16A&B). To validate the specificity of the ligand to FOXC2, Western blot analysis was carried out on the non-target genes of FOXC2, p38 and GSK3P3.
Next, it was examined if FOXC2 inhibition by MC-1-F2 can affect EMT progression. […] It has been shown that inhibition of downstream or upstream targets of other EMT-associated transcription factors such as Snail, Slug and Twist leads to the decreased EMT progression, through the re-expression of E-cadherin (Bachelder et al., 2005; Ren et al., 2013). However, the impact of direct inhibition of EMT-associated transcription factors including FOXC2 on EMT progression has never been explored until now due to the lack of small molecule inhibitors directly targeting these transcription factors.
As EMT is known to bestow on cells CSC-like properties (Hollier et al., 2013), MC-1-F2 should be able to repress CSC characteristics in cells undergoing EMT. In order to examine the effects of MC-1-F2 on CSC properties, a Western blot analysis of MDA-MB-231 cell with and without treatment of MC-1-F2 was carried out, analyzing the CSC markers c-Myc, KLF4, and Nanog. […] In order to further evaluate the effect of MC-1-F2 on CSC properties and EMT progression, β-catenin nuclear localization was examined (FIG. 5D). β-catenin is involved in both EMT progression and acquisition of CSC properties (Kalluri & Weinberg, 2009, Schmalhofer et al., 2009). A repression of E-cadherin has shown to initiate a nuclear localization of β-catenin, leading to an initiation of several EMT signals (Schmalhofer et al., 2009). Moreover, nuclear localization β-catenin is the hallmark of an active Wnt pathway, a major pathway that contributes to CSC properties (Beck & Blanpain, 2013). […] Only nuclear fraction of β-catenin bestows CSC properties on cells.
50 μg of total protein per sample was incubated with 4× loading buffer at 100° C. for 5 min. Protein samples were then loaded into a polyacrylamide gel and subjected to SDS-PAGE. Resolved proteins were then transferred by a wet transfer method to a PVDF membrane at 100 V for 1 hour using a BioRad Mini Trans-Blot Electrophoresis Transfer Cell. Upon the completion of wet transfer, the membrane was then blocked with 5% (w/v) fat-free milk in 1× Tris-buffered saline/0.1% (v/v) Tween-20 (TBS-T) for at least 1 hour. Then incubated with the respective primary antibodies diluted in 5% BSA in 1×TBST at 4° C. overnight. The following day exposed to 1:1000 dilution of anti-mouse or anti-rabbit HRP-conjugated secondary antibodies in 5% (w/v) fat-free milk in 1×TBS-T for 1 hour at room temperature. The probed proteins were then detected for chemiluminescent signal using SuperSignal Chemiluminescent Substrate (PIERCE). Pierce antibodies: B-actin, and all other antibodies used are from cell signaling. MG132 treatment was added to cells (0.5 μM) for 1-hour incubation prior to compound treatment, no more than 24 hours total exceeded during MG132 incubation.

[3] = 48 hours, non-target gene of FOXC2

N=C(N)NCCCCNc1nc(Nc2ccc(Oc3ccccc3)cc2)nc(N2CCN(c3nc(N)nc(Nc4ccc(N5CCOCC5)cc4)n3)CC2)n1 [MC-1-F2]
colony forming activity (MDA-MB-231 cells [1]): strong inhibition of colony forming activity | PDGFR-β expression levels (MDA-MB-231 cells [2]; 24 or 48 hours): decrease in PDGFR-β expression levels | E-cadherin expression (MDA-MB-231 cells [2]; 48 hours): increase E-cadherin expression | KLF4 expression (CSC marker) (MDA-MB-231 cells [2]; 48 hours): decrease | MMP2 expression (MDA-MB-231 cells [2]; 48 hours): downregulated the expression | N-cadherin expression (MDA-MB-231 cells [2]; 48 hours): downregulation of N-cadherin | Nanog expression (CSC marker) (MDA-MB-231 cells [2]; 48 hours): no statistical difference | Slug expression (MDA-MB-231 cells [2]; 48 hours): decrease in other mesenchymal markers | Snail protein level (MDA-MB-231 cells [2]; 48 hours): did not affect the protein level | Vimentin expression (MDA-MB-231 cells [2]; 48 hours): decrease in other mesenchymal markers | ZEB1 expression (MDA-MB-231 cells [2]; 48 hours): downregulate ZEB1 | c-Myc expression (CSC marker) (MDA-MB-231 cells [2]; 48 hours): decrease | cytosolic fraction of β-catenin (MDA-MB-231 cells [2]; 48 hours): increase in the cytosolic fractions | induction of apoptosis (Western blot of Bad, phospho-Bad, Bak, Bax) (MDA-MB-231 cells [2]; 48 hours): induction of an apoptosis | nuclear fraction of β-catenin (MDA-MB-231 cells [2]; 48 hours): decrease in the nuclear fraction | GSK3β expression levels (MDA-MB-231 cells [2]; [3]): no effect on the expression levels | p38 expression levels (MDA-MB-231 cells [2]; [3]): no effect on the expression levels

Source: US10814010B2, “FOXC2 inhibitor and methods of use thereof” (The Board of Regents of The University of Texas System, priority 2018, dated 2020)
